Measurements published in ChEMBL document CHEMBL3351573, “Synthesis and cholinesterase inhibition of cativic acid derivatives” (Bioorg Med Chem, 2014).
pIC50, pKi: −log10 of the molar value.

Assays:
Acetylcholinesterase [1] = target: T1, Acetylcholinesterase (Torpedo californica, UniProt P04058)
Description: Inhibition of Torpedo californica AChE by spectrophotometry based Ellman's method

Cholinesterase = Cholinesterase (Equus caballus, UniProt P81908)
Description: Inhibition of horse serum BChE by spectrophotometry based Ellman's method

[2] = Selectivity index, ratio of IC50 for horse serum BChE to IC50 for Torpedo californica AChE
[3] = Cytotoxicity against human SH-SY5Y cells assessed as LDH release at 5 uM after 1 hr (reference value: -0.78 +/- 3.50%); format: cell-based
[4] = Cytotoxicity against human SH-SY5Y cells assessed as LDH release at 1 uM after 24 hrs (reference value: 0.02 +/- 0.35%); format: cell-based
[5] = Cytotoxicity against human SH-SY5Y cells assessed as change in cell morphology at 1 to 5 uM after 1 hr to 24 hrs by phase contrast microscopy; format: cell-based
[6] = target: Acetylcholinesterase (Homo sapiens) (UniProt P22303); assay: Inhibition of AChE in human SH-SY5Y cells assessed as enzyme activity at 5 uM after 1 hr by Ellman's method; format: cell-based; parameters: scale not given: the % may be the effect or the level left
Chain of Acetylcholinesterase (Homo sapiens) (P22303 whole entry): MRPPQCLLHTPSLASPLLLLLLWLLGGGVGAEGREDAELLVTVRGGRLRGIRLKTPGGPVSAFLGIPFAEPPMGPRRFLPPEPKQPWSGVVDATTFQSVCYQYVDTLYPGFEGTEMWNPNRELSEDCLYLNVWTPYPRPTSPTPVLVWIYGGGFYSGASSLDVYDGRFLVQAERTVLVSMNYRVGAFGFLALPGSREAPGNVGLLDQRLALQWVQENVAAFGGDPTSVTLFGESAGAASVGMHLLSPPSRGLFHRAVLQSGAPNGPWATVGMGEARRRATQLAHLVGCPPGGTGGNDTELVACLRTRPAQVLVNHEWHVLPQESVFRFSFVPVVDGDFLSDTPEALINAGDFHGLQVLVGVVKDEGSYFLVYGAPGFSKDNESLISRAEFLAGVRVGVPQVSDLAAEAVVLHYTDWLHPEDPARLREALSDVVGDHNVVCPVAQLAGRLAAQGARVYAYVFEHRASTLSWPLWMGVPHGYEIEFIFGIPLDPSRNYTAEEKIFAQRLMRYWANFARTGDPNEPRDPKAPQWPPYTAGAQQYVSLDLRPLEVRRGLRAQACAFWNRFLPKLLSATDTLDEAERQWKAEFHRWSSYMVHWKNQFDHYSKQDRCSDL

[7] = Cytotoxicity against human SH-SY5Y cells assessed as LDH release at 5 uM after 24 hrs (reference value: 0.02 +/- 0.35%); format: cell-based
[8] = target: Acetylcholinesterase (Homo sapiens) (UniProt P22303); assay: Inhibition of AChE in human SH-SY5Y cells assessed as enzyme activity at 1 uM after 1 hr by Ellman's method; format: cell-based; parameters: scale not given: the % may be the effect or the level left
[9] = Cytotoxicity against human SH-SY5Y cells assessed as LDH release at 1 uM after 1 hr (reference value: -0.78 +/- 3.50%); format: cell-based
Acetylcholinesterase [10] = target: T1, Acetylcholinesterase; assay: Mixed type inhibition of Torpedo californica AChE by Lineweaver-Burk plot; parameters: species or system Tetronarce californica

Chain of Cholinesterase (P81908 whole entry): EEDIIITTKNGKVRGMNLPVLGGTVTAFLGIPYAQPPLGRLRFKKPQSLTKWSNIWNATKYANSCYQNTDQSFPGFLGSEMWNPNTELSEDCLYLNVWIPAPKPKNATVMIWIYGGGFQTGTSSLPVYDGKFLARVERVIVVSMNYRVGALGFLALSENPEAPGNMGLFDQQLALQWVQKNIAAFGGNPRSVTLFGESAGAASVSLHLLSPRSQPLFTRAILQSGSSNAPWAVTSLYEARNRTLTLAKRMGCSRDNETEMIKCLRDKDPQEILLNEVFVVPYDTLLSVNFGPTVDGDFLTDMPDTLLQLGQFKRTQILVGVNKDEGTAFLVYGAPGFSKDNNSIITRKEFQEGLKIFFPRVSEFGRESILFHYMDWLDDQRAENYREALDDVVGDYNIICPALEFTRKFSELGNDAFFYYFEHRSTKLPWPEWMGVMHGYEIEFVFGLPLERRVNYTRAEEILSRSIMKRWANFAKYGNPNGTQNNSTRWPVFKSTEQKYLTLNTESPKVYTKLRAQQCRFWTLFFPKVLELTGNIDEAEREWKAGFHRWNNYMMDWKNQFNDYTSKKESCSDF
T1 sequence (P04058 whole entry): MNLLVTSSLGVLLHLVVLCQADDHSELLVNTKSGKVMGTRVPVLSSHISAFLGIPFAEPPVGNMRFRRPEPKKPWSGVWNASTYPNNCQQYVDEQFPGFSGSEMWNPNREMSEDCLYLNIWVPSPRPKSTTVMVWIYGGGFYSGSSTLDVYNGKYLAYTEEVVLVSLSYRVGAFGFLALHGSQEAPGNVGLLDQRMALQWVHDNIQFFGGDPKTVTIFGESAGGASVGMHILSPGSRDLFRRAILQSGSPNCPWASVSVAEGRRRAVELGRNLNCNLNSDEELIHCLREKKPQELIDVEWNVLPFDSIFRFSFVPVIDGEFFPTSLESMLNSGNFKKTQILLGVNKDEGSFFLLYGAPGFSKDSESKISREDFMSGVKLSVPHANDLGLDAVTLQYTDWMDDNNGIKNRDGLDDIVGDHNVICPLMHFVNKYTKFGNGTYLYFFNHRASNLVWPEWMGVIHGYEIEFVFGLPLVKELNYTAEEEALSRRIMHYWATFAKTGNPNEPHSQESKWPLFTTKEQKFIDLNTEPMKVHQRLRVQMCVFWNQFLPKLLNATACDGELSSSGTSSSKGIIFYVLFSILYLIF

| SMILES | pIC50 (Acetylcholinesterase [1]) | pIC50 (Cholinesterase) | Ratio IC50 [2] | also measured |
| --- | --- | --- | --- | --- |
| C[C@@H](CC[C@H]1C(CO)=CC[C@H]2C(C)(C)CCC[C@]12C)CC(=O)OCCCCCN1CCCC1 | 5.26 | 4.66 | 4.1 | – |
| CCN(CC)CCCCCOC(=O)C[C@@H](C)CC[C@H]1C(CO)=CC[C@H]2C(C)(C)CCC[C@]12C | 4.86 | 4.57 | 2 | – |
| C[C@@H](CC[C@H]1C(CO)=CC[C@H]2C(C)(C)CCC[C@]12C)CC(=O)OCCCCCN1CCCCC1 | 4.83 | 4.61 | 1.7 | – |
| CCN(CC)CCOC(=O)C[C@@H](C)CC[C@H]1C(CO)=CC[C@H]2C(C)(C)CCC[C@]12C | < 4.30 | 4.40 | < 0.8 | – |
| C[C@@H](CC[C@H]1C(CO)=CC[C@H]2C(C)(C)CCC[C@]12C)CC(=O)OCCN1CCCCC1 | < 4.30 | < 4.30 | – | – |
| C[C@@H](CC[C@H]1C(CO)=CC[C@H]2C(C)(C)CCC[C@]12C)CC(=O)OCCCN1CCCC1 | 4.47 | 4.36 | 1.3 | – |
| C[C@@H](CC[C@H]1C(CO)=CC[C@H]2C(C)(C)CCC[C@]12C)CC(=O)OCCN1CCCC1 | < 4.30 | 4.77 | < 0.3 | – |
| C[C@@H](CC[C@H]1C(CO)=CC[C@H]2C(C)(C)CCC[C@]12C)CC(=O)OCCN1CCOCC1 | < 4.30 | < 4.30 | – | – |
| C[C@@H](CC[C@H]1C(CO)=CC[C@H]2C(C)(C)CCC[C@]12C)CC(=O)OCCCCN1CCCCC1 | 4.82 | 4.43 | 2.5 | – |
| C[C@@H](CC[C@H]1C(CO)=CC[C@H]2C(C)(C)CCC[C@]12C)CC(=O)OCCCCCCN1CCCC1 | 4.87 | 4.97 | 0.8 | – |
| CCN(CC)CCCOC(=O)C[C@@H](C)CC[C@H]1C(CO)=CC[C@H]2C(C)(C)CCC[C@]12C | 4.93 | 4.74 | 1.5 | – |
| C[C@@H](CC[C@H]1C(CO)=CC[C@H]2C(C)(C)CCC[C@]12C)CC(=O)OCCCCN1CCCC1 | 5.49 | 4.99 | 3.2 | Activity [3]: 2.33%; Activity [4]: -0.02%; Activity [5]: Non-toxic; Activity [6]: 30.4%; Activity [7]: 0.11%; Activity [8]: 67.3%; Activity [9]: 1.34%; pKi (Acetylcholinesterase [10]): 5.34 |
| CCN(CC)CCCCOC(=O)C[C@@H](C)CC[C@H]1C(CO)=CC[C@H]2C(C)(C)CCC[C@]12C | 5.03 | 4.63 | 1.8 | – |
| CCN(CC)CCCCCCOC(=O)C[C@@H](C)CC[C@H]1C(CO)=CC[C@H]2C(C)(C)CCC[C@]12C | 4.75 | 4.82 | 0.9 | – |
| C[C@@H](CC[C@H]1C(CO)=CC[C@H]2C(C)(C)CCC[C@]12C)CC(=O)OCCCN1CCOCC1 | < 4.30 | < 4.30 | – | – |
| C[C@@H](CC[C@H]1C(CO)=CC[C@H]2C(C)(C)CCC[C@]12C)CC(=O)OCCCN1CCCCC1 | 5.21 | 4.46 | 5.6 | – |
| C[C@@H](CC[C@H]1C(CO)=CC[C@H]2C(C)(C)CCC[C@]12C)CC(=O)OCCCCCCN1CCCCC1 | 4.84 | 4.98 | 0.7 | – |
| C[C@@H](CC[C@H]1C(CO)=CC[C@H]2C(C)(C)CCC[C@]12C)CC(=O)O | 4.68 | 3.77 | 8.1 | – |
| C[C@@H](CC[C@H]1C(CO)=CC[C@H]2C(C)(C)CCC[C@]12C)CC(=O)OCCCCCN1CCOCC1 | < 4.30 | < 4.30 | – | – |
| C[C@@H](CC[C@H]1C(CO)=CC[C@H]2C(C)(C)CCC[C@]12C)CC(=O)OCCCCN1CCOCC1 | < 4.30 | < 4.30 | – | – |
| C[C@@H](CC[C@H]1C(CO)=CC[C@H]2C(C)(C)CCC[C@]12C)CC(=O)OCCCCCCN1CCOCC1 | < 4.30 | < 4.30 | – | – |
